Test results from patent US5530128A, “N-sulphonylamino derivatives of dipetide compounds as metalloproteinase inhibitors” (Celltech Therapeutics Limited, priority 1992, dated 1996).

Assays:
Format in all cases: biochemical
[1] = biological target: T1, Collagenase (Homo sapiens, UniProt P03956); assay: Enzyme inhibition assay (fluorimetric, peptide substrate Dnp-Pro-Leu-Gly-Trp-Ala-D-Arg-NH2), collagenase; details: Ki (app) assumed to approximate to the true Ki; pH 7.5, overnight
T1 sequence (P03956 100-469): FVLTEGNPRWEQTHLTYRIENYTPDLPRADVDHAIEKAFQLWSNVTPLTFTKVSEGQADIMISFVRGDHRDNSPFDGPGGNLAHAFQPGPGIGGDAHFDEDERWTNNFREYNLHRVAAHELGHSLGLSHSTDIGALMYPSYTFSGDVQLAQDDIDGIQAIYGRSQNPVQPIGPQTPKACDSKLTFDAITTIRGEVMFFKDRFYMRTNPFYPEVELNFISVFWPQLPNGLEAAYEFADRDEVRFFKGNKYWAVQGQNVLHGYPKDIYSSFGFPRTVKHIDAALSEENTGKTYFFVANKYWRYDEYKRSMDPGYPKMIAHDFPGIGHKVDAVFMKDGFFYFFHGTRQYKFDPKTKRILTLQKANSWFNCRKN
Procedure: (§1) The activity and selectivity of the compounds of the invention may be determined as described below. All enzyme assays to determine Ki values were performed using the peptide substrate […]. [M. Sharon Stock and Rober D. Gray, JBC 264, 4277-81, 1989]. The enzymes cleave at the Gly-Leu bond which can be followed fluorimetrically by measuring the increase in Trp fluorescence emission associated with the removal of the quenching dinitrophenol (Dnp) group. […] Brij 35 at either room temperature or 37° C. depending on the enzyme. The reaction is stopped by adjusting the pH to 4 using 0.1M sodium acetate buffer and the fluorescence read at an excitation wavelength of 280 nm and emission wavelength of 346 nm. […] For stromelysin and collagenase, Ki (app) was assumed to approximate to the true Ki as [S]<<Km for the substrate hydrolysis. For gelatinase the Ki was determined by performing the analyses at several substrate concentrations. A plot of Ki (app) vs. [S] then gave the true Ki as the value of the y-axis intercept.

[2] = biological target: Stromelysin-1 (Homo sapiens, UniProt P08254); assay: Enzyme inhibition assay (fluorimetric, peptide substrate Dnp-Pro-Leu-Gly-Trp-Ala-D-Arg-NH2), stromelysin; details: Ki (app) assumed to approximate to the true Ki; pH 7.5, overnight
Chain of Stromelysin-1 (P08254 100-477, species assumed): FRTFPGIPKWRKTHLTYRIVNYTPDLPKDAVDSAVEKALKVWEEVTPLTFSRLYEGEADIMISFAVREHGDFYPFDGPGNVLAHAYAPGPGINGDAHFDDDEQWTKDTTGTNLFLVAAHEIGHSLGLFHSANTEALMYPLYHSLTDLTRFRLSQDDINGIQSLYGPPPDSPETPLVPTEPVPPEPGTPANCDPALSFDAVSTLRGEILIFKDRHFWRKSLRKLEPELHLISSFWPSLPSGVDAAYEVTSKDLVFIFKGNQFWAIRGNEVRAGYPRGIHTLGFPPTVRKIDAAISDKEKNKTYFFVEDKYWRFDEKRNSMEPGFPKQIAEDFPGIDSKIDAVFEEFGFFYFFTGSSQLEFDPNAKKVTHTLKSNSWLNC
Procedure: as §1

[3] = biological target: T2, Gelatinase 72KD (Homo sapiens, UniProt P08253); assay: Enzyme inhibition assay (fluorimetric, peptide substrate Dnp-Pro-Leu-Gly-Trp-Ala-D-Arg-NH2), gelatinase; details: true Ki from plot of Ki (app) vs. [S]; pH 7.5, overnight
T2 sequence (P08253 110-660): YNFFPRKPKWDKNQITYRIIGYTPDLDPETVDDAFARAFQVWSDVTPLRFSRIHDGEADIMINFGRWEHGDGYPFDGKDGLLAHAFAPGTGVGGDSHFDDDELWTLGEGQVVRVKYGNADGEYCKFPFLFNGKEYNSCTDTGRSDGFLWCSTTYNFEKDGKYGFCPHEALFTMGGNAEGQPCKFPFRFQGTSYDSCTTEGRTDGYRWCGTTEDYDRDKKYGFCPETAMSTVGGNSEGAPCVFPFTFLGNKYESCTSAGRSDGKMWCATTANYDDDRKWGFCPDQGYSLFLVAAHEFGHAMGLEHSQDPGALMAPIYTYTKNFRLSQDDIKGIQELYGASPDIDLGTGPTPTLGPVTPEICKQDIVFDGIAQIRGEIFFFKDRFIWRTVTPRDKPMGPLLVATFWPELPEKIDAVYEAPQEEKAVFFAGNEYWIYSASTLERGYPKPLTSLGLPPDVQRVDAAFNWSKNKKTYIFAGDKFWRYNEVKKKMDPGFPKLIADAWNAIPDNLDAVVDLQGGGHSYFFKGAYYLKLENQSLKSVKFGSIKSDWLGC
Procedure: as §1

| Structure (SMILES) | Ki [1] | Ki [2] | Ki [3] |
| --- | --- | --- | --- |
| Cc1ccc(CCC[C@H](CC(=O)NO)C(=O)N[C@@H](CC2CCCCC2)C(=O)NCCCNS(=O)(=O)N(C)C)cc1 [Example 6] | 800 nM | 6.8 nM |  |
| Cc1ccc(CCC[C@H](CC(=O)NO)C(=O)N[C@@H](CC2=CCCCC2)C(=O)NCCNS(=O)(=O)N2CCOCC2)cc1 [Example 5, {4-(N-Hydroxyamino)-2(R)-[3-(4-methylphenyl)propyl]succinyl}-L-β-(1-cyclohexenylalanine)-N-[(2-morpholinesphonylamino)ethyl]amide] | 554 nM | 18.7 nM | 0.047 nM |
| Cc1ccc(CCC[C@H](CC(=O)O)C(=O)N[C@@H](CC2CCCCC2)C(=O)NCCNS(=O)(=O)N2CCOCC2)cc1 [Example 2, {4-Hydroxy-2-(R)-[3-(4-methylphenyl)propyl]succinyl}-L-β-cyclohexylalanine-N-[(2-morpholinesulphonylamino)ethyl]amide] | 100000 nM | 802 nM | 1.43 nM |

These reach a lower Ki [1]. Values come first.

| Ki [1] | Ki [2] | Ki [3] | Structure (SMILES) |
| --- | --- | --- | --- |
| 385 nM | 2.75 nM |  | Cc1ccc(CCC[C@H](CC(=O)NO)C(=O)N[C@@H](CC2CCCCC2)C(=O)NCCNS(=O)(=O)N2CCOCC2)cc1 [Example 3, {4-(N-Hydroxyamino)-2(R)-[3-(4-methylphenyl)propyl]succinyl}-L-β-cyclohexylalanine-N-[(2-morpholinesulphonylamino)ethyl]amide] |
| 302 nM | 1.73 nM | 0.014 nM | O=C(C[C@@H](CCCc1ccc(Cl)cc1)C(=O)N[C@@H](CC1CCCCC1)C(=O)NCCNS(=O)(=O)N1CCOCC1)NO [Example 4, {4-(N-Hydroxyamino)-2(R)-[3-(4-chlorophenyl)propyl]succinyl}-L-β-cyclohexylalanine-N-[(2-morpholinesulphonylamino)ethyl]amide] |
